Entries after “also recorded” stand apart in the source; their conditions may differ.

We go through three compounds from patent US20190204335A1, “Assay Method For Determining The Risk Of Pre-Eclampsia” (The Queen's University of Belfast, priority 2016, published 2019).

Test [1] has as its system FKBPL. The experiment in a line: FKBPL mRNA levels in HTR8.SV.neo cells. The format is cell-based. Particulars: 10 μM, 24 h, serum-containing medium. The procedure:
(§1) Trophoblast (HTR8.SV.neo, BeWo) and endothelial cells (HUVEC) were exposed to: • i. diabetic stimuli, in the form of highly oxidised and glycated low density lipoproteins (HOG-LDL, 25 μg/ml)/4HNE (10 μM) or high glucose (10, 20, 30, 40 mM); or • ii. hypoxia (1%) or DMOG (10 μM), before FKBPL/SIRT1 protein and RNA levels were measured.

Test [2] concerns FKBPL. The test is described as follows: FKBPL protein expression in BeWo trophoblast cell line. The note with it: BeWo cells, 10 μM, serum-containing medium. The format is cell-based. The procedure: as §1
For test [3], the system named is FKBPL. The experiment in a line: FKBPL protein level in HUVEC under hypoxia or normoxia (Western blotting). The note with it: 24 h, metformin 10 μM. The format is cell-based, human. Here is the method:
HUVEC cells were seeded and then exposed to hypoxia (1%) or normoxia (21%) for 24 h in the presence of metformin or vehicle control (VC). Protein lysates were prepared and FKBPL protein level measured using Western blotting.
A general note: Immunoblotting shows a protein as a band on a membrane.

Take `CCCCCC(O)/C=C/C=O` (centres unmarked) [4-HNE]: the “FKBPL mRNA levels” value in the test on FKBPL [1] is on record as “No change”; with FKBPL [1] (listed as 4HNE), “No change in FKBPL mRNA levels”. Moreover, the results for the FKBPL protein expression entry in the test on FKBPL [2] and with FKBPL [2] (listed as 4HNE) were “downregulation of FKBPL protein expression” and “reduction in FKBPL protein levels”, respectively.

`COC(=O)CNC(=O)C(=O)OC` [DMOG]: in the test with FKBPL [1], the “FKBPL mRNA levels” value is “reduction in FKBPL mRNA levels; also recorded: downregulation in FKBPL mRNA levels”. For the same compound, the FKBPL protein expression result in the test with FKBPL [2] is recorded as “reduction; also recorded: downregulation of FKBPL protein expression”.

`CN(C)C(=N)N=C(N)N` [metformin]: the “FKBPL expression normalised to vehicle control” value in the test with FKBPL [3] (hypoxia (1%)) was “increasing the protein expression of FKBPL; also recorded: upregulates FKBPL”; in the test on FKBPL [3] (normoxia (21%)) it was “No change in FKBPL levels; also recorded: does not affect levels of FKBPL”.
